Measured values reported in patent US20100075917A1, “THIONUCLEOSIDES AND PHARMACEUTICAL APPLICATIONS” (priority 2006, published 2010).
Like-named read-outs stand apart in the source and are kept apart here.

How the values were obtained:
[1] = tested on: MCF-7 mammary carcinoma cells; experiment: Cytotoxicity (MTT) on MCF-7 cells; format: cell-based, human; conditions: Homo sapiens; for CC50: MCF7, read-out: CC50 MCF-7
Description: (§1) The cytotoxic effect of a compound is studied on human CEM cells and MCF-7 mammary carcinoma cells that are or are not resistant to gemcitabine, which is an anticancer nucleoside used in chemotherapy.
(§2) The cytotoxicity (CC50) was estimated by measuring the reduction of 3-(4,5-dimethylthiazol-2-yl)-2,5-diphenyltetrazolium bromide (MTT), which is converted into insoluble violet formazan. To do this, 100 000 cells (human CEM-SS or MCF-7 lines) are inoculated per well in 100 μl of culture medium, in 96-well microtitration plates. After 24 hours, the test products are added in 100 μl and incubation is continued for 48 to 72 hours. MIT is then added in a proportion of 20 μl of a solution at 5 mg/ml in PBS. Three hours later, 100 μl of a DMF/acetic acid/HCl/SDS (sodium dodecyl sulfate) solution are added. After 3 hours at 37° C., the absorbance of the formazan is measured at 590 nm and compared with that of the untreated control.

human CEM cells = experiment: Cytotoxicity (MTT) on CEM cells; format: cell-based; conditions: for CC50: read-out: CC50 CEM; for EC50: Tables 4 and 6, CEM cells, some values 'then plateau'
Description: as §1, §2

[2] = tested on: L1210 cell line (mouse lymphoma); experiment: Incorporation of tritiated thymidine; format: cell-based; conditions: L1210 cells
Description: These tests are performed on the L1210 cell line (mouse lymphoma) according to a published protocol (Lepoivre M., Flaman J.-M., Bobé P., Lemaire G., Henry Y. J. Biol. Chem., 1994, 269, 21891-21897). The wells are inoculated (10 000 cells per well) and, after culturing for 72 hours, [^3H]thymidine and the test compound are added to the culture medium. After incubation for 8 hours, the DNA is separated from the other cell constituents and the amount of labeled thymidine incorporated is quantified and compared with a control (without compound).
The effects of compound 1 at 50 μM and 200 μM, respectively, on the concentrations of tritiated thymidine incorporated are expressed as a percentage of the control.

[3] = tested on: human CEM-SS T lymphoma cells; experiment: Measurement of the intracellular concentrations of 2′-deoxyribonucleotides (dNTP); format: cell-based; conditions: 24 hours; for activity at 50 µM: 1 at 50 μM
Description: The protocol adopted for performing this test (Roy, B.; Beuneu, C.; Roux, P.; Buc, H.; Lemaire, G.; Lepoivre, M. Simultaneous determination of pyrimidine or purine deoxyribonucleoside triphosphates using a polymerase assay. Anal. Biochem., 1999, 269, 403-409) consists in culturing human CEM-SS T lymphoma cells in the presence of the test compounds. The concentrations of dNTP and in particular of dATP are measured after 24 hours of incubation. dATP is the nucleoside triphosphate whose concentration decreases the most during tests with standard ribonucleotide reductase inhibitors such as hydroxyurea, which was used as control.
The quantification is related to the number of live cells counted after staining with trypan blue or related to the initial number of cells (approximately two million). It is measured as a percentage relative to a control manipulation.
The effects of compound 1 at 50 μM on the concentrations of 2′-deoxynucleoside 5′-triphosphates (dNTP) necessary for DNA synthesis are calculated from the dNTP concentrations measured after 24 hours and determined in pmol of dNTP/million cells. The percentages are expressed as a percentage of the control with an average of four controls, taking the counts into account, and are compared with that of an anticancer agent, hydroxyurea (HU), tested at a concentration of 63 μM.

[4] = tested on: MCF-7* (MCF-7 mammary carcinoma cells resistant to gemcitabine); experiment: Cytotoxicity (MTT) on gemcitabine-resistant MCF-7 cells; format: cell-based, human; conditions: listed as printed twice per table
Description: as §1, §2
Compounds 1 and 3 to 8 corresponding to formula (II) above; compound 2 corresponding to the non-silyl compound, it corresponds to formula (II) above in which R1 represents CH2CH2CH(CH3)2 and was also tested to observe a possible effect of the silicon. These compounds were evaluated for their cytotoxicity on human CEM cells and MCF-7 mammary carcinoma cells resistant (MCM-7*) or non-resistant (MCF-7) to gemcitabine, which is an anticancer nucleoside used in chemotherapy.

human CEM T4 lymphocytes = experiment: Cytotoxic effect on CEM T4 lymphocytes; format: cell-based; set-up: unit not given beside the values; conditions: Tables 5 and 7, CEM cells
HIV-2 [5] = experiment: Anti-HIV-2 effect in CEM cells; format: cell-based; conditions: Human immunodeficiency virus 2, CCRF-CEM, read-out: EC50 HIV-2
Description: (§3) The evaluation test is described in Roy, B.; Chambert, S.; Lepoivre M.; Aubertin, A.-M.; Balzarini, J.; Décout, J.-L., Deoxyribonucleoside 2′- or 3′-mixed disulfides: prodrugs to target ribonucleotide reductase and/or to inhibit HIV reverse transcription. J. Med. Chem. 2003, 46, 2565-2568.
(§4) The toxicity and the antiviral activities were measured at different concentrations, and their evolution as a function of the concentration makes it possible to evaluate: • the concentration at which 50% of the cells are dead in the absence of virus (CC 50) for each of the test compounds, from the change in absorbance at 540 nm of formazan as a function of the concentration of test compound, • the concentration of compound that leads to a 50% reduction in the activity of viral reverse transcriptase (EC 50). This concentration is determined from the curve representing the change in the percentage of “remaining reverse transcriptase” activity (defined as being the ratio of the activity of the reverse transcriptase in the presence of the test compound to that of the untreated cells) as a function of the concentration of test compound.
(§5) EC50: concentration required to afford 50% protection to the CEM cells against the cytopathogenicity of HIV;

[6] = tested on: FM3A/0 murine mammary carcinoma cells; experiment: Cytotoxic effect on FM3A/0 cells; format: cell-based; set-up: unit not given beside the values; conditions: Tables 5 and 7, FM3A/0 cells
[7] = tested on: L1210/0 murine leukemia cells; experiment: Cytotoxic effect on L1210/0 cells; format: cell-based; conditions: Tables 5 and 7, L1210/0 cells
human Molt4/C8 cells = experiment: Cytotoxic effect on Molt4/C8 cells; format: cell-based; conditions: Tables 5 and 7, Molt4/C8 cells
[8] = Cytotoxic concentration in CEM cells (antiviral tests); format: cell-based, human; conditions: human; First and Second Series, second table; viability of CEM cells
Description: as §4
(§6) CC50: cytotoxic concentration or concentration required to reduce the viability of the CEM cells by 50%.

HIV-1 = experiment: Anti-HIV-1 effect in CEM cells; format: cell-based; conditions: Human immunodeficiency virus 1, CCRF-CEM
Description: as §3, §4, §5

HIV-2 [9] = experiment: Anti-HIV-2 effect in CEM/TK− cells; format: cell-based; conditions: Human immunodeficiency virus 2, CEM-TK(-); Third Series; CEM cells having no thymidine kinase activity
Description: as §3, §4, §5
• Effect in CEM not expressing thymidine kinase activity (CEM/TK^−, cells having no thymidine kinase activity).

Moloney sarcoma virus = experiment: Inhibition of transformation of mouse embryo C3H/3T3 cells induced by Moloney sarcoma virus; format: cell-based; set-up: MIC (minimum inhibitory concentration): unit not given here; conditions: for EC50: C3H/3T3, read-out: EC50 (effective concentration 50%); for MIC (minimum inhibitory concentration): C3H/3T3 cells, a second bound is given in brackets for some compounds
Description: 2.2. Inhibitory Effect on the Transformation of Mouse Embryo C3H/3T3 Cells Induced by Moloney Sarcoma Virus (Model of Infection with HIV)

HeLa cells = experiment: Cytotoxic effect on HeLa cells; format: cell-based; set-up: unit not given beside the values; conditions: Tables 5 and 7, HeLa cells
CEM cells = experiment: Cytotoxic concentration in CEM cells (antiviral tests); format: cell-based, human; conditions: First and Second Series, second table; viability of CEM cells
Description: as §4, §6

[10] = Homo sapiens, MCF7, MCF-7 resistant to gemcitabine
[11] = First and Second Series, second table, CEM cells
[12] = First and Second Series, second table, read-out: EC50 HIV-1
[13] = Third Series, read-out: EC50 HIV-1

Row | Compound | cytotoxic effect, CEM (human CEM T4 lymphocytes) | EC50 (HIV-2 [5]; [11]) [µM] | EC50 (HIV-2 [5]; Third Series, CEM cells) [µM] | cytotoxic effect, FM3A/0 [6] | cytotoxic effect, L1210/0 [7] | cytotoxic effect, Molt4/C8 (human Molt4/C8 cells) | EC50 (human CEM cells; Homo sapiens, CCRF-CEM) [µM] | CC50 [8] [µM] | EC50 (HIV-1; [12]) [µM] | EC50 (HIV-1; [13]) [µM] | EC50 (HIV-2 [9]) [µM] | EC50 (Moloney sarcoma virus) [µM] | MIC (minimum inhibitory concentration) (Moloney sarcoma virus) | cytotoxic effect, HeLa (HeLa cells) | other results
1 | C[Si](C)(C)CCSC1=C[C@@H](CO)O[C@H]1n1ccc(=O)[nH]c1=O [Compound 1, 2′,3′-Didehydro-2′,3′-dideoxy-2′-(2-trimethylsilyl)ethylthiouridine] |  |  |  |  |  |  |  |  |  |  |  |  |  |  | CC50 [1]: 69 µM; CC50 (human CEM cells; Homo sapiens, CCRF-CEM): 156 µM; decrease of the incorporation of tritiated thymidine into the DNA ([2]; 50 μM): 38%; tritiated thymidine incorporated as a percentage of the control ([2]; 50 μM): 62%; decrease of the incorporation of tritiated thymidine into the DNA ([2]; 200 μM): 86%; tritiated thymidine incorporated as a percentage of the control ([2]; 200 μM): 14%; activity at 50 µM ([3]; read-out: dATP concentration, % of control): 50%; activity at 50 µM ([3]; read-out: dCTP concentration, % of control): 42%; activity at 50 µM ([3]; read-out: dGTP concentration, % of control): 31%; activity at 50 µM ([3]; read-out: dTTP concentration, % of control): 85%
2 | Cc1cn([C@@H]2O[C@H](CO)C=C2SCC[Si](C)(C)C)c(=O)[nH]c1=O [Compound 3] |  |  |  |  |  |  |  |  |  |  |  |  |  |  | CC50 [1]: 40 µM; CC50 (human CEM cells; Homo sapiens, CCRF-CEM): 13 µM; EC50 [4, 10]: 37 µM; EC50 ([4]; MCF-7 resistant to gemcitabine): 41 µM
3 | O=c1ccn([C@@H]2O[C@H](CO)C=C2SSC(Cl)(Cl)Cl)c(=O)[nH]1 [Compound 13, 2′,3′-didehydro-2′,3′-dideoxyuridin-2′-yl trichloromethyl disulfide] |  |  |  |  |  |  |  |  |  |  |  |  |  |  | EC50 ([1]; MCF7, Table 4, MCF-7): 194 µM; EC50 [4, 10]: 177 µM; EC50 ([4]; MCF-7 resistant to gemcitabine): 194 µM
4 | Cc1cn([C@H]2CC(SSCCCCCCO)[C@@H](CO)O2)c(=O)[nH]c1=O (some centres unmarked) [Compound 18] | 187 ± 1 | 11.7 ± 2.9 | 17.5 ± 11 | ≧500 | 44 ± 1 | 66 ± 9 | 152 | 107 ± 7 | 10.3 ± 5.7 | 22.5 ± 3.5 | > 50 | 8.3 ± 2.3 | >100 | 56 ± 8 | EC50 (HIV-2 [5]; First and Second Series, first table, CEM cells): 6.5 ± 0.7 µM; EC50 (HIV-1; read-out: EC50 HIV-1, First and Second Series, first table): 4 µM
5 | C=CCSS[C@H]1C[C@H](n2cc(C)c(=O)[nH]c2=O)O[C@@H]1CO [Compound 20, 3′-deoxythymidin-3′-yl allyl disulfide] | 128 ± 18 | 15 ± 7 | 20 ± 7 | 299 ± 45 | 43 ± 5 | 34 ± 6 | 48 | 53 ± 7 | 12.5 ± 3.5 | 17.5 ± 3.5 | > 50 | 2.2 ± 0.3 | 100 | 40 ± 7 | EC50 (human CEM cells): 46 µM
6 | Cc1cn([C@H]2C[C@H](SSCCO)[C@@H](CO)O2)c(=O)[nH]c1=O [Compound 21, 3′-deoxythymidin-3′-yl 2-hydroxyethyl disulfide] | 347 ± 71 | 14 ± 7 | 15 ± 7 | >500 | 26 ± 3 | 128 ± 33 | > 200 | > 250 | 13.5 ± 3 | 17.5 ± 3.5 | > 50 | 5.9 ± 0.5 | >100 | ≧100 | 
7 | CCCCSS[C@H]1C[C@H](n2cc(C)c(=O)[nH]c2=O)O[C@@H]1CO [Compound 24, 3′-deoxythymidin-3′-yl butyl disulfide] | 44 ± 1 | > 10 | > 10 | 286 ± 24 | 32 ± 0 | 28 ± 7 |  |  | 8 ± 3 | > 10 | > 10 | 1 ± 0.5 | 100 | 23 ± 2 | CC50 (CEM cells): 23.3 ± 0.6 µM
8 | Cc1cn([C@H]2C[C@H](SSCCN)[C@@H](CO)O2)c(=O)[nH]c1=O.Cl [Compound 27, 3′-deoxythymidin-3′-yl 2-aminoethyl disulfide hydrochloride] | 437 ± 71 |  |  | >500 | 65 ± 9 | 163 ± 41 |  | > 250 | 27.5 ± 3.5 | 20 | 150 |  |  | >100 | EC50 (HIV-2 [5]): 27.5 ± 3.5 µM
9 | NC(=O)NO [Hydroxyurea, hydroxyurea, reference compound] |  |  |  |  |  |  |  |  |  |  |  |  |  |  | activity at 63 µM ([3]; Hydroxyurea control, 63 μM, read-out: dTTP concentration, % of control): 51%
